Laboratory results published in the NIST ThermoML archive (doi:10.1016/j.jct.2018.03.021).
Numbers after ± are expanded uncertainties.

What was measured:
[1] = molar heat capacity at constant pressure; conditions: 100 kPa, Liquid, Extra sensitive DSC
[2] = 100 kPa, Liquid, Vibrating tube method
[3] = molar heat capacity at constant pressure; xn = mol fraction of the nth substance listed; conditions: 100 kPa, Liquid, Extra sensitive DSC, x2 = 0
[4] = xn = mol fraction of the nth substance listed; conditions: 100 kPa, Liquid, Vibrating tube method, x2 = 0

| molar heat capacity at constant pressure ([1]; 298.8 K) [J/K/mol] | molar heat capacity at constant pressure ([1]; 308.7 K) [J/K/mol] | molar heat capacity at constant pressure ([1]; 318.6 K) [J/K/mol] | molar heat capacity at constant pressure ([1]; 328.5 K) [J/K/mol] | mass density ([2]; 298.15 K) [kg/m3] | mass density ([2]; 308.15 K) [kg/m3] | mass density ([2]; 318.15 K) [kg/m3] | mass density ([2]; 328.15 K) [kg/m3] | SMILES | molar heat capacity at constant pressure ([3]; 298.8 K) [J/K/mol] | molar heat capacity at constant pressure ([3]; 308.7 K) [J/K/mol] | molar heat capacity at constant pressure ([3]; 318.6 K) [J/K/mol] | molar heat capacity at constant pressure ([3]; 328.5 K) [J/K/mol] | mass density ([4]; 298.15 K) [kg/m3] | mass density ([4]; 308.15 K) [kg/m3] | mass density ([4]; 318.15 K) [kg/m3] | mass density ([4]; 328.15 K) [kg/m3] |
| --- | --- | --- | --- | --- | --- | --- | --- | --- | --- | --- | --- | --- | --- | --- | --- | --- |
| 240.9 ± 9.3 | 244.8 ± 9.5 | 249.4 ± 9.7 | 254.6 ± 9.9 | 852.99 ± 0.71 | 844.94 ± 0.71 | 836.86 ± 0.71 | 828.75 ± 0.71 | Cc1ccc(C(C)C)cc1 [1-(1-methylethyl)-4-methylbenzene] |  |  |  |  |  |  |  |  |
| 144.5 ± 5.6 | 150.9 ± 5.8 | 157.4 ± 6.1 | 164.5 ± 6.4 | 799.46 ± 0.71 | 791.36 ± 0.71 | 783.1 ± 0.71 | 774.63 ± 0.71 | CCCO [propan-1-ol] |  |  |  |  |  |  |  |  |
|  |  |  |  |  |  |  |  | CCCO [propan-1-ol] + Cc1ccc(C(C)C)cc1 | 144.5 ± 5.6 | 150.9 ± 5.8 | 157.4 ± 6.1 | 164.5 ± 6.4 | 799.46 ± 0.71 | 791.36 ± 0.71 | 783.1 ± 0.71 | 774.63 ± 0.71 |
